According to PMC4784888, “Activity Based High-Throughput Screening for Novel O-GlcNAc Transferase Substrates Using a Dynamic Peptide Microarray” (PLoS ONE, 2016):

What was measured:
[1] = molecular target: T1, m-OGT (mitochondrial isoform of O-GlcNAc transferase) (human) (UniProt O15294)
T1 sequence: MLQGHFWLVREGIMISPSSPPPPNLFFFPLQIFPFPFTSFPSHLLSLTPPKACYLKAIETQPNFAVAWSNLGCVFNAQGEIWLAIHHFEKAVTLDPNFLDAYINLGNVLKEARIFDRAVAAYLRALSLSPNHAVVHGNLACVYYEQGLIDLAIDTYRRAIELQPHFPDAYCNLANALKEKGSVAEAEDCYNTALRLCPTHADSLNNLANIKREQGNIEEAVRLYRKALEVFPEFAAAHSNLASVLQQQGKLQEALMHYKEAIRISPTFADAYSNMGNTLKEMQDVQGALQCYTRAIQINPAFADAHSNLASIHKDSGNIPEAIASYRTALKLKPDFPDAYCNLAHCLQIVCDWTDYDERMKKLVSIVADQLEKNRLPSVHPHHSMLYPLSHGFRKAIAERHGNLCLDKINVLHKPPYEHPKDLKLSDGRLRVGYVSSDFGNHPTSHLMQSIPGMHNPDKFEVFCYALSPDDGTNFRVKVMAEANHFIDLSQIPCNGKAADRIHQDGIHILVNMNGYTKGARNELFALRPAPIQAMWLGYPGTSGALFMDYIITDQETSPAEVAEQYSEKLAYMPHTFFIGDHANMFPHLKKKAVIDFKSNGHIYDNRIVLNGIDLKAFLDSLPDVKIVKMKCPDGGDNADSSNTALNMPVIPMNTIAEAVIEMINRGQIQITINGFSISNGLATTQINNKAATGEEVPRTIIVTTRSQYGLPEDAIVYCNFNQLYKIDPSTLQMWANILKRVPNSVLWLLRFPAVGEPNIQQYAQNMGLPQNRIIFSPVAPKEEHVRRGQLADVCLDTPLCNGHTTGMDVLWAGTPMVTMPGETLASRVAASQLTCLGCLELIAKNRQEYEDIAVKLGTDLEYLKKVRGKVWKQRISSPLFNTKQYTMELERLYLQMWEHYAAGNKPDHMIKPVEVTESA

[2] = test system: s-OGT; experiment: O-GlcNAcylation on kinase substrate peptide microarray, s-OGT; type: biochemical, human; settings: bacterial lysate containing s-OGT (7 μg/μL), 1 mM UDP-GlcNAc, 50 mM Tris-HCl pH 7.5, 30°C, FITC antibody fluorescence, corrected for signal without UDP-GlcNAc
Experimental: (§1) Plasmids encoding s-OGT, m-OGT, and nc-OGT are generous gifts from John A. Hanover (National Institute of Health, USA). OGT overexpression was carried out as previously described. All the plasmids were transformed into E.coli BL21 (DE3) competent cells to produce a cell lysate containing OGT for use or for further purification. Briefly, inoculated a single colony into 50 ml of LB broth media containing 50 μg/ml ampicillin and cells were grown overnight at 37°C with vigorous shaking. 50 mL of the start culture was added into 1L LB broth media containing 50 μg/mL ampicillin and it was incubated with shaking at 200 rpm at 37°C until A600 reached 0.4–0.6. After the culture was cooled to room temperature, 0.5 mM IPTG was added into the culture to induce protein expression. After 16 hours, the cells were collected by centrifugation for 10 min at 4000 RPM at 4°C. The pellets were lysed in lysis buffer containing 20 mM Tris-HCl, pH 7.5, 1 mg/mL lysome, 0.1% triton x-100 and complete mini EDTA-free protease inhibitor cocktail on ice for 10 min and the lysate was sonicated until the DNA was completely sheared. After centrifugation for 10 min at 12000 rpm at 4°C, the supernatant was carefully transferred into a clean tube and was ready for the array assay or for further purification. Protein expression was determined by coomassie blue staining and western blotting using an anti-OGT antibody.
(§2) Peptide O-GlcNAcylation was assessed using PamChip 4 microarray chips with a PamStation 12 instrument (Pamgene international, The Netherlands). The OGT enzyme reaction was prepared essentially as described[26] with minor modifications. Briefly, before addition of the enzyme reaction, the microarray was blocked with blocking buffer (1% BSA in TBS). After 30 cycles (2 cycles/min) blocking, the blocking buffer was aspirated and the microarray was incubated with 40 μL of the enzyme reaction containing OGT (lysate or purified), OGT reaction buffer (50 mM Tris—HCl, pH 7.5;1 mM DTT;12.5 mM MgCl2), a 1:1 pre-incubated mixture of anti-O-GlcNAc and FITC conjugated secondary antibody, and the sugar donor UDP-GlcNAc or water as a control for 480 cycles (2 cycles/min) at 30°C. The microarray was run in parallel by pumping the reaction up and down through the porous membrane at every cycle and a tiff image was obtained at every 20 cycles by a CCD camera inside the PamStation. O-GlcNAcylation of each peptide was detected by a fluorescent signal which was produced by an FITC conjugated antibody bound to the O-GlcNAc moiety on the peptide.
(§3) Image analysis was performed using BioNavigator 6 software (Pamgene international, The Netherlands). Briefly, each image was quantified by automated array grid finding and subsequent quantification of signal and local background for each individual spot. In this work, the signal median-minus-background value was used as the quantitative parameter for the O-GlcNAcylation of the peptide.
(§4) Dynamic peptide microarray (PamChip) technology has been successfully and widely used for kinase activities profiling in the last decade. In the present work, we describe, for the first time, the utility of this peptide microarray format for the identification of human OGT activity. Due to the fact that O-GlcNAcylation and phosphorylation may occur at the same or proximal amino acids on the same protein [9], a peptide microarray of 144 peptides derived from different kinase substrates (S1 Appendix) was selected for an initial test. […] O-GlcNAcylation of peptides in each individual spot was detected by a fluorescent signal produced by the FITC labelled antibody recognizing the O-GlcNAcylated amino acids of converted peptides. Kinetic activity was measured through scanning the signal at regular intervals.
(§5) Fig 2 Identification of human OGT substrates from a kinase substrate and nuclear hormone receptor interaction peptide microarray. […]

[3] = test system: m-OGT; experiment: O-GlcNAcylation on kinase substrate peptide microarray, m-OGT; type: biochemical, human; settings: bacterial lysate containing m-OGT (7 μg/μL), 1 mM UDP-GlcNAc, 50 mM Tris-HCl pH 7.5, 30°C, FITC antibody fluorescence, corrected for signal without UDP-GlcNAc
Experimental: as §1, §2, §3, §4, §5

[4] = test system: nc-OGT; experiment: O-GlcNAcylation on kinase substrate peptide microarray, nc-OGT; type: biochemical, human; settings: bacterial lysate containing nc-OGT (7 μg/μL), 1 mM UDP-GlcNAc, 50 mM Tris-HCl pH 7.5, 30°C, FITC antibody fluorescence, corrected for signal without UDP-GlcNAc
Experimental: as §1, §2, §3, §4, §5

[5] = test system: OGT (s-OGT, m-OGT, nc-OGT); experiment: O-GlcNAcylation on kinase substrate peptide microarray, three isoforms taken together; type: biochemical, human; settings: for O-GlcNAcylation by all three isoforms OGT: kinase substrate microarray, bacterial lysates s-, m-, nc-OGT, 1 mM UDP-GlcNAc
Experimental: as §1, with “The pellets were lysed in lysis buffer containing 20 mM Tris-HCl, pH 7.5, 1 mg/mL lysome, 0.1% triton x-100 and complete mini EDTA-free protease inhibitor cocktail on ice for 10 min and the lysate was sonicated until the DNA was completely sheared.” left out
(§6) Peptide O-GlcNAcylation was assessed using PamChip 4 microarray chips with a PamStation 12 instrument (Pamgene international, The Netherlands). […] O-GlcNAcylation of each peptide was detected by a fluorescent signal which was produced by an FITC conjugated antibody bound to the O-GlcNAc moiety on the peptide.
as §3
Dynamic peptide microarray (PamChip) technology has been successfully and widely used for kinase activities profiling in the last decade. […] Kinetic activity was measured through scanning the signal at regular intervals. […]

[6] = test system: m-OGT; experiment: Validation of RBL-2 peptide O-GlcNAcylation on microarray, dependency on UDP-GlcNAc and m-OGT lysate; type: biochemical, human
Experimental: as §1, with “After 16 hours, the cells were collected by centrifugation for 10 min at 4000 RPM at 4°C. The pellets were lysed in lysis buffer containing 20 mM Tris-HCl, pH 7.5, 1 mg/mL lysome, 0.1% triton x-100 and complete mini EDTA-free protease inhibitor cocktail on ice for 10 min and the lysate was sonicated until the DNA was completely sheared.” left out
Peptide O-GlcNAcylation was assessed using PamChip 4 microarray chips with a PamStation 12 instrument (Pamgene international, The Netherlands). […] O-GlcNAcylation of each peptide was detected by a fluorescent signal which was produced by an FITC conjugated antibody bound to the O-GlcNAc moiety on the peptide. […]

[7] = test system: purified m-OGT; experiment: Ala scan of RBL-2_410–422 on peptide microarray; type: biochemical, human; settings: microarray; 1 mM UDP-GlcNAc, 0.2 μg/μL purified m-OGT
Experimental: (§7) One step OGT purification was performed using His60 Ni Gravity Flow Columns (Clontech) according to the manufacturer’s instructions. Briefly, the nickel column was equilibrated with a buffer containing 50 mM sodium phosphate, 300 sodium chloride, 20 mM imidazole, and pH 7.4, followed by incubation with cell lysate containing His tag OGT for 1h at 4°C. After washing several times using buffer containing 50 mM sodium phosphate, 300 sodium chloride, 40 mM imidazole, and pH 7.4, the recombinant OGT was eluted using elution buffer containing 50 mM sodium phosphate, 300 mM sodium chloride, 300 mM imidazole, and pH 7.4. The eluted fraction was concentrated through a 100,000 Da molecular weight cut off Amicon unit by centrifugation 10 min at 5000 RPM at 4°C.
as §2, §3
Synthesis of all the peptides was achieved by following a standard Fmoc SPPS strategy on a Symphony Multiple Peptide Synthesizer and starting from rink amide resin. The following Fmoc amino acids were used: Fmoc-Cys(Trt)-OH, Fmoc-Gly-OH, Fmoc-Lys(Boc)-OH, Fmoc-Glu(Otbu)-OH, Fmoc-Asn(Trt)-OH, Fmoc-Ser(tBu)-OH, Fmoc-Thr(tBu)-OH, Fmoc-Ala-OH, Fmoc-Pro-OH, Fmoc-Val-OH. Deprotection was performed using 20% piperidine in DMF, and coupling was performed using 1:0.9:2 amino acid/ HBTU/DIPEA in DMF. After completion of the synthesis, the protected peptidyl resins were incubated with a 10 mL mixture of TFA (trifluoroacetic acid): H2O: triisopropylsilane (TIPS): 1, 2-ethanedithiol (EDT) (9:0.5:0.25:0.25, v/v/v/v) and allowed to stir for 2 h at room temperature under a nitrogen atmosphere. The cleaving mixture was filtered and the resin was washed with TFA (2 mL) and DCM (4 mL). The residue was precipitated by treatment of precooled diethyl ether and centrifugation. Two times washing and centrifugation yielded the crude products in a pellet. The precipitated peptides were dissolved in water, frozen, and lyophilized. All products were stored at -20°C. Crude peptide analysis was carried out by LC-MS.
To further confirm this and investigate the role of this and surrounding amino acid residues in our activity based assay, we resynthesized the RBL-2 peptide present on the microarray and performed an Ala scan, thus replacing of all the possible O-GlcNAc sites (Ser and Thr) in RBL-2_420–422 (Fig 4A). To immobilize the peptides on the chip, all the peptides were prepared with an extra CG at the NH2 terminal to allow immobilization on the maleimide-based chip surface. […]

[8] = test system: purified m-OGT; experiment: Inhibition of RBL-2_410–422 O-GlcNAcylation by known OGT inhibitor on microarray; type: biochemical, human; settings: 200 μM ST045849, purified m-OGT (0.2 μg/μL), 1 mM UDP-GlcNAc
Experimental: as §7, with “The eluted fraction was concentrated through a 100,000 Da molecular weight cut off Amicon unit by centrifugation 10 min at 5000 RPM at 4°C.” left out
as §6
Image analysis was performed using BioNavigator 6 software (Pamgene international, The Netherlands). Briefly, each image was quantified by automated array grid finding and subsequent quantification of signal and local background for each individual spot. In this work, the signal median-minus-background value was used as the quantitative parameter for the O-GlcNAcylation of the peptide. […]

[9] = test system: OGT; settings: known OGT inhibitor; ref [31]; read-out: reported IC50; cited from earlier work
Excerpt: Its interesting biology motivated us to further focus on the validation of RBL-2 O-GlcNAcylation in the following work. Kinetic signals of the GlcNAcylation were collected to fully understand the O-GlcNAcylation of RBL-2_420–422.

Compound | OGT isoforms activity, s [2] | OGT isoforms activity, m [3] | OGT isoforms activity, nc [4] | O-GlcNAcylation by all three isoforms OGT [5] | other results
RBL-2_410–422 T417A peptide (from UniProt Q08999 410-422) |  |  |  |  | O-GlcNAcylation of the peptide in solution, UDP-Glo assay (UDP formation) [1]: 20%
MLRGRSLSVTSLG [GYS2_1_13, kinase substrate microarray peptide …] | P (Signal greater than 5% of the highest signal was defined as positive (P)) | P (Signal greater than 5% of the highest signal was defined as positive (P)) | P (Signal greater than 5% of the highest signal was defined as positive (P)) | significantly O-GlcNAcylated by all three isoforms OGT | 
KENSPCVTPVSTA [RBL-2_410_422, kinase substrate microarray peptide …] | P (Signal greater than 5% of the highest signal was defined as positive (P)) | P (Signal greater than 5% of the highest signal was defined as positive (P)) | P (Signal greater than 5% of the highest signal was defined as positive (P)) |  | Rank as hit in screening assay ([5]; peptide microarray screening): best hit in our screening assay; O-GlcNAcylation versus amount of m-OGT lysate ([6]; bacterial lysate containing m-OGT 0, 1.7, 3.5, 7 μg/μL, 1 mM UDP-GlcNAc): increased with increasing amounts of bacterial lysate containing recombinant m-OGT; O-GlcNAcylation rate versus UDP-GlcNAc concentration ([6]; bacterial lysate containing m-OGT (7 μg/μL), UDP-GlcNAc 0–10 mM): increased upon the addition of increasing concentrations of the donor UDP-GlcNAc; OGT activity of wild type compared with C415A, microarray [7]: dramatic decrease of activity comparing with C415A peptide
O=C(O)C1CC(=O)N(CCC23CC4CC(CC(C4)C2)C3)C(=Nc2ccc(Cl)cc2)S1 (stereo not shown) [ST045849, 3-(2-adamantanylethyl)-2-[(4-chlorophenyl)azamethylene]-4-oxo-1,3-thiazaperhyd roine-6-carboxylic acid] |  |  |  |  | inhibition of RBL-2 peptide O-GlcNAcylation [8]: 80%; IC50 [9]: ~50 µM
RBL-2_410–422 T421A peptide (from UniProt Q08999 410-422) |  |  |  |  | decrease of the O-GlcNAcylation of the immobilised peptide by purified m-OGT (0.2 μg/μL, 1 mM UDP-GlcNAc), peptide microarray, against the control peptide (wild type with C415A) [1]: 40%
LSAFRRTSLAGGG [MYPC3_268_280, kinase substrate microarray peptide …] | P (Signal greater than 5% of the highest signal was defined as positive (P)) | P (Signal greater than 5% of the highest signal was defined as positive (P)) | P (Signal greater than 5% of the highest signal was defined as positive (P)) | significantly O-GlcNAcylated by all three isoforms OGT | 
